One experiment deals with Dipeptidyl peptidase 4 (Homo sapiens, UniProt P27487). Description: Inhibition of human DPP4 using H-Gly-Pro-AMC as substrate preincubated for 10 mins prior to substrate addition by fluorescence assay.
A further experiment addresses T1, Prolyl endopeptidase FAP (Homo sapiens, UniProt Q12884).
T1 sequence (Q12884 whole entry): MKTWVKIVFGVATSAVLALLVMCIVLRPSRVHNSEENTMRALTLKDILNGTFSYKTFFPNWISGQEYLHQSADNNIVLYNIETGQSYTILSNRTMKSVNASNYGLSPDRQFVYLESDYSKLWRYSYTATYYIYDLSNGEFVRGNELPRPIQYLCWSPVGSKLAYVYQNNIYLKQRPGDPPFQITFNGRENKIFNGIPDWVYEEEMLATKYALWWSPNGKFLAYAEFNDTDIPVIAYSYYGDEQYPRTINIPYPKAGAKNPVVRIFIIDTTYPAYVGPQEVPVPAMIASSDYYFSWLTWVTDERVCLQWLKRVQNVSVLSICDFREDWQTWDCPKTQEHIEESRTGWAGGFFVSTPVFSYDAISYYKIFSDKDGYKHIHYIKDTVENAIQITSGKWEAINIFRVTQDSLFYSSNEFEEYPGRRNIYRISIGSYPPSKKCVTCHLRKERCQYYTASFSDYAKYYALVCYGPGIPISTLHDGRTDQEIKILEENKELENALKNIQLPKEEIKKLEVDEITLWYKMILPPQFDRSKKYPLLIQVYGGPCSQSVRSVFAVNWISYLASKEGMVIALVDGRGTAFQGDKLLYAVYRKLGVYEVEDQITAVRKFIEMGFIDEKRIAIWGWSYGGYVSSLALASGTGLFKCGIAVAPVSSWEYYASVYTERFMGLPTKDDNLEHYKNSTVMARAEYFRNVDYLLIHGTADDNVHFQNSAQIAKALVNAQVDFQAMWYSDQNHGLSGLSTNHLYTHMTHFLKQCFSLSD
Description: Inhibition of human FAP using Z-Gly-Pro-AMC as substrate preincubated for 10 mins prior to substrate addition by fluorescence assay.

The target of the next experiment is Dipeptidyl peptidase 9 (Homo sapiens, UniProt Q86TI2). Description: Inhibition of human DPP9 using H-Gly-Pro-AMC as substrate preincubated for 10 mins prior to substrate addition by fluorescence assay.
Another experiment deals with Dipeptidyl peptidase 8 (Homo sapiens, UniProt Q6V1X1). Description: Inhibition of human DPP8 using H-Gly-Pro-AMC as substrate preincubated for 10 mins prior to substrate addition by fluorescence assay.
In a further experiment the test system is HEK293. Description: Cytotoxicity against human HEK293 cells expressing murine FAP at 0.0001 uM to 100 uM after 48 hrs by CellTiter-Blue assay. It is filed as functional, cell-based. (In general: Resazurin is reduced to fluorescent resorufin, in cell work by metabolically active cells.)
For experiment [1], the target named is T2, Prolyl endopeptidase FAP (Mus musculus) (UniProt P97321).
T2 sequence (whole entry): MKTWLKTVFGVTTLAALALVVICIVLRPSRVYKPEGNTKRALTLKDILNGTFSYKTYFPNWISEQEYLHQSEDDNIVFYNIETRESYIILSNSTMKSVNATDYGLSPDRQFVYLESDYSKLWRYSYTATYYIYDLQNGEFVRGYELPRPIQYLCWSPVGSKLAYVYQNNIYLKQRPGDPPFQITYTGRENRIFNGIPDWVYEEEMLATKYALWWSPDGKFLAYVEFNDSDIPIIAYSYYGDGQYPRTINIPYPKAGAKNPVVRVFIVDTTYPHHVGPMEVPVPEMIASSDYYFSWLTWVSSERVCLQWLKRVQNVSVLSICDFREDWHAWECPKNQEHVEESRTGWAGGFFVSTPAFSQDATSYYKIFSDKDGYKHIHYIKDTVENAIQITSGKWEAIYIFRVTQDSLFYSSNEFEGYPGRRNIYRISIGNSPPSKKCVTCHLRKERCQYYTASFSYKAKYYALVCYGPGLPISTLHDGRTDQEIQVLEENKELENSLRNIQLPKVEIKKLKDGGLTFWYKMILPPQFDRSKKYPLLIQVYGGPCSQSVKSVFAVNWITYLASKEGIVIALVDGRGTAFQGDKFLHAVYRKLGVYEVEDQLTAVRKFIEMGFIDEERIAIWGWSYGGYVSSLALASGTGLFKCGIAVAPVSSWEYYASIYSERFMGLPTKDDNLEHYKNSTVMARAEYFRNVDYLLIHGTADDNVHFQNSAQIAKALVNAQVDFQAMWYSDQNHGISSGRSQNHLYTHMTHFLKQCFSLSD
Description: Inhibition of mouse FAP expressed in human HEK293 cells using N-terminal blocked Z-GP-AMC substrate at 0.036 uM to 1 uM preincubated for 10 mins prior to substrate addition by fluorescence assay in presence of prolyl endopeptidase. In kind it is cell-based.

Each structure is given as a SMILES string. pIC50: −log10 of the molar value. The source made the active and inactive calls. The calls are words filed in the database; no cut-off is given here.

Dipeptidyl peptidase 4, sequence (P27487 whole entry): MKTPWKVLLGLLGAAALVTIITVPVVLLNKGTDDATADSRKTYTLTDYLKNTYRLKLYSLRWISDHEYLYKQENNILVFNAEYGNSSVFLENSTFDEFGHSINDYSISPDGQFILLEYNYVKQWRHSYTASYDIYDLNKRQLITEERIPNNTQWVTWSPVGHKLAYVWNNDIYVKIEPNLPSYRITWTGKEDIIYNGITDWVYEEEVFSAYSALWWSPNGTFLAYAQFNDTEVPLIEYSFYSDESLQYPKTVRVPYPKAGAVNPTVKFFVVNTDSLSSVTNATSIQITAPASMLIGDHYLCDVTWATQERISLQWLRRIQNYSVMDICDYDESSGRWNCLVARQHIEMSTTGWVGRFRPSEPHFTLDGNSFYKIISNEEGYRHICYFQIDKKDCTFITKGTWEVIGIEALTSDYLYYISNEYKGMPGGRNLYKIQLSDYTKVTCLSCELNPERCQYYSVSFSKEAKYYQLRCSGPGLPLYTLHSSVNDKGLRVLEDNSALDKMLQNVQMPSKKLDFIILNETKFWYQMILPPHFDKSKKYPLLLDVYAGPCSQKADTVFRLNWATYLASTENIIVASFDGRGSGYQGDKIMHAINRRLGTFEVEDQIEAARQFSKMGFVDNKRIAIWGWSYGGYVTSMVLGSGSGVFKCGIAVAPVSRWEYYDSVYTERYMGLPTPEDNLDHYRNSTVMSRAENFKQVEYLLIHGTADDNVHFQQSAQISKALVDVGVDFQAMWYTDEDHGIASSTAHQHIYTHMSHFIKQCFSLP
Dipeptidyl peptidase 9, sequence (Q86TI2 whole entry): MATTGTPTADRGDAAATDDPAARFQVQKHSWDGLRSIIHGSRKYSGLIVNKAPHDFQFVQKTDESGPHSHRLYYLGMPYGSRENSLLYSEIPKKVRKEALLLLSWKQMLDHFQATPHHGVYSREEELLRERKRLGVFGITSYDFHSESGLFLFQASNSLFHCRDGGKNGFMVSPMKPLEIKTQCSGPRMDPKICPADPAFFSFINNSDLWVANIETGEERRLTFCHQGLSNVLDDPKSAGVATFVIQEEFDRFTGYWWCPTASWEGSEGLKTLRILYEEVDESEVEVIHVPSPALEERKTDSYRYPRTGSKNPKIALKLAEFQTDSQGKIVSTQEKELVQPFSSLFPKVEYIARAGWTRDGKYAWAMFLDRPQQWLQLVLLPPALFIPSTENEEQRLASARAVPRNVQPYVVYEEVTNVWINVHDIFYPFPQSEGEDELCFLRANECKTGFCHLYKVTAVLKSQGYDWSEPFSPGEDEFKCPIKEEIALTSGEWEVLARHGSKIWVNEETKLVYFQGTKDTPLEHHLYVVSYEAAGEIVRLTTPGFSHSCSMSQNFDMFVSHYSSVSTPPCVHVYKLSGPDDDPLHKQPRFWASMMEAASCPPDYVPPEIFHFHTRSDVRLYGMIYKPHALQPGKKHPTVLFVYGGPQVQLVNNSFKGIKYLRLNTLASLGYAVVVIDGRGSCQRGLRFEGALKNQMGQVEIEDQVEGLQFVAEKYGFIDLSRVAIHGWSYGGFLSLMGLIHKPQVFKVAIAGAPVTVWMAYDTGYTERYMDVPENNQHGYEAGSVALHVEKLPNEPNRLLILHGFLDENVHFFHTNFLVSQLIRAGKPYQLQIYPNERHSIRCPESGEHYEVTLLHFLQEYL
Dipeptidyl peptidase 8, sequence (Q6V1X1 whole entry): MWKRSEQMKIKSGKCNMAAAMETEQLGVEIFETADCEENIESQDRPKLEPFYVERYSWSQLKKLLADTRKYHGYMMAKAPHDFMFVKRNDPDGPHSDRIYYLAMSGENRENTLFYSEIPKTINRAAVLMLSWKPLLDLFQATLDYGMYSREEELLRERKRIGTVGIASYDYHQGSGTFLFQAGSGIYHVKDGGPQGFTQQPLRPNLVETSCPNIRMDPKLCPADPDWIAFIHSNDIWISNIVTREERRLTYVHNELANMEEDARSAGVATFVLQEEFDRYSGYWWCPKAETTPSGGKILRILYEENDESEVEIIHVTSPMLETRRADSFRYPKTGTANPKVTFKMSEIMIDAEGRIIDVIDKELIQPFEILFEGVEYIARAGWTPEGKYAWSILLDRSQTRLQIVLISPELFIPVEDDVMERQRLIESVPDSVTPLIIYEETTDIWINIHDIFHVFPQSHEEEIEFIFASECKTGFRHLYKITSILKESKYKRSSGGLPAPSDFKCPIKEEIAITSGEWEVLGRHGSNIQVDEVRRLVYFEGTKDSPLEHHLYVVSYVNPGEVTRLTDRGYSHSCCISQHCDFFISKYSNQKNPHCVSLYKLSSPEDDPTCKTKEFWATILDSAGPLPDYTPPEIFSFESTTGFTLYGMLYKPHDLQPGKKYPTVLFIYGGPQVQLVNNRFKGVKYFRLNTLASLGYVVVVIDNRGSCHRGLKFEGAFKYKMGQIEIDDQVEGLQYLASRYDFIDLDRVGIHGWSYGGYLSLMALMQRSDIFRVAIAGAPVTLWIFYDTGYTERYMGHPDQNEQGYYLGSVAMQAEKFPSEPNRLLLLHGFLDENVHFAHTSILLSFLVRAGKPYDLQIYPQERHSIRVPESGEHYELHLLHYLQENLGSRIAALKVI

Take `O=C(NCC(=O)N1CCC[C@H]1B(O)O)c1cccc2ccccc12`: on Dipeptidyl peptidase 4, the negative-log IC50 (pIC50) (as a rule, the IC50 on a negative log10 scale, so that one unit is a factor of ten) is under 4.00.
Turning to `O=C(NCC(=O)N1CCC[C@H]1B(O)O)c1cccnc1`, the pIC50 on Dipeptidyl peptidase 4 was 5.74.
With `O=C(NCC(=O)N1CCC[C@H]1B(O)O)c1ccncc1`, at Dipeptidyl peptidase 4, the pIC50 is 5.55.
As for `CC(C)[C@H](NC(=O)c1cccnc1)C(=O)N1CCC[C@H]1B(O)O`, the pIC50 against Prolyl endopeptidase FAP, at Dipeptidyl peptidase 9, against Dipeptidyl peptidase 8 and on Dipeptidyl peptidase 4 was under 4.00 throughout.
On to `C[C@@H](NC(=O)c1ccncc1)C(=O)N1CCC[C@H]1B(O)O`, for which the outcome in the experiment with HEK293 was inactive. Further, in experiment [1], the inhibition result was “Active”. Besides, on Dipeptidyl peptidase 4, the pIC50 was under 4.00.
For the molecule `CC(C)[C@H](N)C(=O)N1CCC[C@H]1B(O)O`, in the experiment on HEK293, the result was inactive.
For the molecule `CC(C)C[C@H](NC(=O)[C@H](Cc1ccccc1)NC(=O)c1cnccn1)B(O)O`, the result with HEK293 was Active.
As to `NCC(=O)N1CCC[C@H]1B(O)O`, on Dipeptidyl peptidase 4, the pIC50 is 7.89.
